Residues, ends and D or L forms follow the SMILES beside them. *: point of attachment. Cbz = O=C(OCc1ccccc1)*; CH2F = FC*
Tests used:
MOLT-4 cells [1] = assay: Inhibition of Gal-9- or other stimulus-induced apoptosis by lactose, caspase and calpain inhibitors; format: cell-based, human; settings: for effect on pro-apoptosis activity by Gal-9: 30 mM lactose or sucrose, FIG. 2; for inhibition of TNF-α-induced apoptosis / inhibition of anti-Fas Ab-induced apoptosis / inhibition of DEX-induced apoptosis / inhibition of C2 ceramide-induced apoptosis: caspase inhibitors; for inhibition of TNF-α-induced apoptosis / inhibition of anti-Fas Ab-induced apoptosis / inhibition of DEX-induced apoptosis / inhibition of Gal-9-induced apoptosis / inhibition of C2 ceramide-induced apoptosis: FIG. 5; for inhibition of Gal-9-induced apoptosis: inhibitor at 10 μM, added 1 hr before Gal-9 stimulation
Experimental: MOLT-4 (T cell), Jurkat (T cell), BALL-1 (B cell), THP-1 (acute monocytic leukemia derived cell), and HL60 (acute promyelotic leukemia derived cell) cells were obtained from American Type Culture Collection (ATCC). All the cell lines were maintained in an RPMI-1640 medium (Sigma, St. Louis, US) supplemented with 10% FCS in 5% Co2 at 37° C. Lactose (30 mM) was added to the culture medium to inhibit Gal-9 activity. The same concentration of sucrose was used as a control. Cells were incubated with Gal-9 in the presence of Z-VAD-FMK (pan-caspase inhibitor), Z-YVAD-FMK (caspase-1 inhibitor), Z-IETD-FMK (caspase-8 inhibitor), Z-LEHD-FMK (caspase-9 inhibitor), Z-ABVD-FMK (caspase-lo inhibitor), or Z-LLY-FMK (calpain inhibitor) (BioVision, CA, US), at 10 μM, and the participation of caspase or calpain in the Gal-9-induced apoptosis was examined. Z-FA-FMK (BioVision, CA, US) was used as a control (Vu C. C. et al., J. Biol. Chem., 276: 37602 (2001) and Sweeney E. A. et al., FEBs Lett., 425: 61 (1998)). Each inhibitor was added 1 hr before Gal-9 stimulation. The following agents were purchased from suppliers below: DEX (BioVision, CA, US), anti-Fas Ab (clone CH-11, MBL), TNFα (Genzyme, Cambridge, Mass., US), C2 ceramide (SIGMA), and etoposide (Biovision).

MOLT-4 cells [2] = assay: Ca2+ influx, Fluo-3 assay by flow cytometry; format: cell-based, human; settings: FIG. 8; for effect on calcium influx induced by Gal-9: 30 mM lactose or sucrose
Experimental: Cells (approx. 10^6 to 10^7 cells/mL) in the culture medium (10% FCS, RPMI-1640 containing 10 mM HEPES, pH 7.2) were incubated with fluo-3 AM (final concentration 10 μM, Dojindo, Kumamoto, Japan), an intracellular calcium indicator, at 37° C. for 30 min (Sharp, B. M. et al., Proc. Natl. Acad. Sci. USA, 93: 8294 (1996)). Then the cells were washed and resuspended in the culture medium (final concentration, approx. 2×10^5 cells/mL per sample). Intracellular calcium level was measured by flow cytometry. The resting cells were stimulated at 1 min after their fluorescence intensities were measured.
Next, sequential measurement was restarted until different stimuli were applied. In lactose inhibition assay, cells were stimulated in the presence of 30 mM lactose. Sucrose (30 mM) was used as a control (Sano, H. et al., J. Imnunol., 165: 2156 (2000)). A23187 (calcium ionophore, final concentration 5 ng/mL, Wako, Osaka, Japan) was used as a positive control.

CD4+ T cells = assay: Apoptosis induction in peripheral blood CD4+ T cells, resting or anti-CD3 Ab-activated; format: cell-based, human; settings: galectin (+), 1 μM rGal-9
Experimental: (§1) To prepare a well plate coated with anti-CD3 Ab, 24 well palates were incubated with TBS solution (pH 8.0) containing 3 μg/mL anti-CD3 Ab (Inmunotech, Marseille, France) per well at 4° C. overnight, and each well was washed with PBS after removing anti-CD3 Ab solution.
(§2) Mononuclear leukocyte fractions were isolated from heparinized blood using HISTOPAQUE (Registered trademark, SIGMA). CD4-Positive Isolation Kit (DYNAL, Oslo, Norway) was used for isolation of CD4+ T cells and Dynabeads M-450 CD8 (Registered trademark, DYNAL, Oslo, Norway) for isolation of CD8+ T cells, respectively, according to the manufacturer's instructions.
(§3) To activate T cells, CD4+ or CD8+ cells at 1×10^6 cells/mL in an RPMI-1640 medium containing 10% FCS were incubated on the plate coated with anti-CD3 Ab for 20 to 24 hr at 37° C. in a 5% CO2 incubator, and incubated with rGal-9 [(His)6-Gal-9(S)] at 37° C. in a 5% CO2 incubator. Then apoptosis assay was conducted as described in (c). That is, cells were incubated with 50 μg/mL PI (SIGMA) at 37° C. for 10 min in the dark. Stained cells were analyzed by flow cytometry (Sandstrom, K. et al., J Immunol Methods, 240: 55 (2000) and Zhang L. et al., Cancer Lett, 142: 129 (1999)).
(§4) Apoptosis assay was also conducted for non-activated (resting) T cells as described above after incubating them with rGal-9 [(His)6-Gal-9(S)] at 37° C. in a 5% Co2 incubator.
(§5) For comparison, galectin-1 and -3 treated cells were analyzed.
(§6) Next, apoptosis induction by Gal-9 in human peripheral blood T cells was examined. T cells were separated into CD4+ and CD8+ T cells followed by incubation in the presence or absence of anti-CD3 Ab. Resting T cells and anti-CD3 Ab-activated T cells were incubated with 1 μM rGal-9.

CD8+ T cells = assay: Apoptosis induction in peripheral blood CD8+ T cells, resting or anti-CD3 Ab-activated; format: cell-based, human; settings: galectin (+), 1 μM rGal-9
Experimental: as §1, §2, §3, §4, §5, §6

MM-RU = assay: Induction of cell aggregation in MM-RU; format: cell-based, human; settings: controls, at the dose of at least 1 μM
Experimental: Recombinant galectin-9 prepared via gene transfer into E. coli was added to MM-RU exogenously, and the efficacy of galectin-9 was then examined. As a result, galectin-9 induced aggregation of MM-RU at the concentration of 0.1 μM or higher. In addition, the galectin-9 efficacy was concentration-dependent, and significant between 0.3-1.0 μM.

CD4 T Cell = assay: Apoptosis induction in non-activated normal CD4 T cells (Table 4); format: cell-based; settings: 1 μM galectin-9, 1 μM galectin-3
Experimental: (§7) For example, measurements of apoptosis induction in the presence of 1 μM galectin-9 are as shown in Table 4 below (also 1 μM for galectin-3 in Table 4).

CD8 T Cell = assay: Apoptosis induction in non-activated normal CD8 T cells (Table 4); format: cell-based; settings: 1 μM galectin-9, 1 μM galectin-3
Experimental: as §7

Jurkat T cells = settings: 16 hr incubation with 1 mM galectin-9, PI, FACS
Experimental: (§8) Cytotoxicities in Jurkat T cells, K-562 leukemic cells, and normal lymphocytes were measured by flow cytometry analysis using PI. That is, PI invades into the damaged target cells when PI is added for the last 15 min of 16 hr incubation with 1 mM galectin-9. Fluorescence generated by PI is measured by FACS. Untreated cells were used as a negative control group, formalin-fixed cells as a 100% dead cell group, and H2O2 (hydrogen peroxide solution)-treated cells as a positive control group, respectively.

K-562 leukemic cells = settings: 16 hr incubation with 1 mM galectin-9, PI, FACS
Experimental: as §8

normal lymphocytes = settings: Normal Lymphocyte; 16 hr incubation with 1 mM galectin-9; PI, FACS
Experimental: as §8

MOLT-4 cells [3] = assay: Inhibition of Gal-9- or other stimulus-induced apoptosis by lactose, caspase and calpain inhibitors; format: cell-based, human; settings: inhibitor at different concentrations; FIG. 6, FIG. 7
[4] = CD3 (+) cells activated on anti-CD3 Ab-coated plates
[5] = CD3 (−) untreated resting cells

OC[C@H]1O[C@@](CO)(O[C@H]2O[C@H](CO)[C@@H](O)[C@H](O)[C@H]2O)[C@@H](O)[C@@H]1O [sucrose]
effect on pro-apoptosis activity by Gal-9 (MOLT-4 cells [1]): not
effect on calcium influx induced by Gal-9 (MOLT-4 cells [2]): not inhibited

CNc1ccc2oc(C[C@H]3O[C@@]4(CC[C@H]3C)O[C@H]([C@H](C)C(=O)c3ccc[nH]3)[C@H](C)C[C@H]4C)nc2c1C(=O)O [A23187]
calcium influx (MOLT-4 cells [2]; Fluo-3 assay, A23187 final concentration 5 ng/mL): significantly induced

Galectin-1: galectin used for comparison / control
apoptosis induction, CD4 (CD4+ T cells; [4]): 13.9
apoptosis induction, CD4 (CD4+ T cells; [5]): 8.1
apoptosis induction, CD8 (CD8+ T cells; [4]): 19
apoptosis induction, CD8 (CD8+ T cells; [5]): 9.6
aggregation (MM-RU): No obvious aggregation

OC[C@H]1O[C@@H](O[C@H]2[C@H](O)[C@@H](O)C(O)O[C@@H]2CO)[C@H](O)[C@@H](O)[C@H]1O (some centres unmarked) [lactose, Lactose]
effect on pro-apoptosis activity by Gal-9 (MOLT-4 cells [1]): almost completely inhibited
effect on calcium influx induced by Gal-9 (MOLT-4 cells [2]): inhibited

COC(=O)CC[C@H](NC(=O)[C@H](C)NC(=O)OCc1ccccc1)C(=O)N[C@H](C(=O)N[C@@H](CC(=O)OC)C(=O)CF)C(C)C [Z-AEVD-FMK] (Cbz-AE(OMe)VD(OMe)-CH2F)
inhibition of TNF-α-induced apoptosis (MOLT-4 cells [1]): inhibited
inhibition of anti-Fas Ab-induced apoptosis (MOLT-4 cells [1]): inhibited

Galectin-3: galectin used for comparison / control
apoptosis induction, CD4 (CD4+ T cells; [4]): 15.7
apoptosis induction, CD4 (CD4+ T cells; [5]): 9.6
apoptosis induction, CD8 (CD8+ T cells; [4]): 20.9
apoptosis induction, CD8 (CD8+ T cells; [5]): 14.7
apoptosis induction, CD4 T Cell Resting (CD4 T Cell): 10.3
apoptosis induction, CD8 T Cell Resting (CD8 T Cell): 15.9
aggregation (MM-RU): No obvious aggregation

OO [H2O2, hydrogen peroxide solution, reference compound]
cytotoxicity, 16 hours (Jurkat T cells): 97.7
cytotoxicity, 16 hours (K-562 leukemic cells): 99.2
cytotoxicity, 16 hours (normal lymphocytes): 96.8

CC[C@H](C)[C@H](NC(=O)OCc1ccccc1)C(=O)N[C@@H](CCC(=O)OC)C(=O)N[C@H](C(=O)N[C@@H](CC(=O)OC)C(=O)CF)[C@@H](C)O [Z-IETD-FMK] (Cbz-IE(OMe)TD(OMe)-CH2F)
inhibition of TNF-α-induced apoptosis (MOLT-4 cells [1]): inhibited
inhibition of anti-Fas Ab-induced apoptosis (MOLT-4 cells [1]): inhibited

COC(=O)C[C@H](NC(=O)[C@H](C)NC(=O)[C@@H](NC(=O)[C@H](Cc1ccc(O)cc1)NC(=O)OCc1ccccc1)C(C)C)C(=O)CF [Z-YVAD-FMK]
inhibition of DEX-induced apoptosis (MOLT-4 cells [1]): inhibited
inhibition of Gal-9-induced apoptosis (MOLT-4 cells [1]): inhibited
inhibition of Gal-9-induced apoptosis, dose dependence (MOLT-4 cells [3]): in a dose-dependent manner

CC(C)CC(NC(=O)OCc1ccccc1)C(=O)NC(CC(C)C)C(=O)NC(Cc1ccc(O)cc1)C(=O)CF (stereo not drawn) [Z-LLY-FMK] (Cbz-Leu-Leu-Tyr-CH2F; configuration not given here)
inhibition of Gal-9-induced apoptosis, dose dependence (MOLT-4 cells [3]): in a dose dependent manner

COC(=O)C[C@H](NC(=O)[C@H](C)NC(=O)[C@@H](NC(=O)OCc1ccccc1)C(C)C)C(=O)CF [Z-VAD-FMK] (Cbz-Val-Ala-Asp(OMe)-CH2F)
inhibition of C2 ceramide-induced apoptosis (MOLT-4 cells [1]): inhibition
inhibition of DEX-induced apoptosis (MOLT-4 cells [1]): inhibition
inhibition of TNF-α-induced apoptosis (MOLT-4 cells [1]): inhibition
inhibition of anti-Fas Ab-induced apoptosis (MOLT-4 cells [1]): inhibition
inhibition of Gal-9-induced apoptosis (MOLT-4 cells [1]): almost completely inhibited
inhibition of Gal-9-induced apoptosis, dose dependence (MOLT-4 cells [3]): in a dose-dependent manner

COC(=O)CC[C@H](NC(=O)[C@H](CC(C)C)NC(=O)OCc1ccccc1)C(=O)N[C@@H](Cc1cnc[nH]1)C(=O)N[C@@H](CC(=O)OC)C(=O)CF [Z-LEHD-FMK] (Cbz-LE(OMe)HD(OMe)-CH2F)
inhibition of C2 ceramide-induced apoptosis (MOLT-4 cells [1]): inhibited

— patent US20060134119A1, “Drugs containing galectin 9” (priority 2003, published 2006)
